Each compound was assayed against T1, Regulator of G-protein signaling 19 (Homo sapiens, UniProt P49795) (assay: RGS19-Galphao binding modulators, analog potency, SAR follow-up, biochemical, SAR compounds, multiplexed bead flow cytometry (AID 2311)). Details: not given.
T1 sequence (P49795 whole entry): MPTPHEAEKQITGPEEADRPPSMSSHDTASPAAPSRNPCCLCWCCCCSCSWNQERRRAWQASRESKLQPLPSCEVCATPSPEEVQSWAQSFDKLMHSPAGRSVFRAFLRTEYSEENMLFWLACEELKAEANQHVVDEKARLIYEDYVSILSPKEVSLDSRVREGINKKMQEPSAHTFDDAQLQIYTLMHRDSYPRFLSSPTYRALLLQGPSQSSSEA

SMILES | EC50
O=c1c2ccccc2sn1-c1ccc(S(=O)(=O)N2CCCC2)cc1 [2-(4-pyrrolidin-1-ylsulfonylphenyl)-1,2-benzothiazol-3-one] | > 30 µM
CCN=c1scc(C)n1N=Cc1ccc(O)c(O)c1O | 0.378 µM
O=c1c2ccccc2sn1-c1ccccc1 [2-phenyl-1,2-benzothiazol-3-one] | > 30 µM
COC(=O)CCC(=O)Nc1sc(C)c(C)c1C(N)=O [4-[(3-carbamoyl-4,5-dimethyl-2-thienyl)amino]-4-keto-butyric acid methyl ester] | > 30 µM
CN1CCN(C2=C(Cl)C(=O)C(c3cnc(N4CCCCC4)s3)=C(Cl)C2=O)CC1 | 0.027 µM
Cc1[nH]n(-c2ccccc2)c(=S)c1C=NCCCN=Cc1c(C)[nH]n(-c2ccccc2)c1=S | 0.056 µM
O=C(NCCCN1CCOCC1)c1sc2cc([N+](=O)[O-])ccc2c1Cl [3-chloranyl-N-(3-morpholin-4-ylpropyl)-6-nitro-1-benzothiophene-2-carboxamide] | 0.488 µM
CCOC(=O)c1sc(NC(=O)CSc2nnc(Cc3ccccc3)o2)c(C#N)c1C [4-cyano-3-methyl-5-[[1-oxo-2-[[5-(phenylmethyl)-1,3,4-oxadiazol-2-yl]thio]ethyl]amino]-2-thiophenecarboxylic acid ethyl ester] | 0.155 µM
CN=c1scc(C)n1N=Cc1ccc(O)c(O)c1O [(4E)-2,3-dihydroxy-4-[[(4-methyl-2-methylimino-1,3-thiazol-3-yl)amino]methylidene]cyclohexa-2,5-dien-1-one] | 0.209 µM
CC(NC(=O)c1sc2cc([N+](=O)[O-])ccc2c1Cl)C(C)(C)C (stereo unspecified) [3-chloranyl-N-(3,3-dimethylbutan-2-yl)-6-nitro-1-benzothiophene-2-carboxamide] | > 30 µM
NS(=O)(=O)c1ccc(N=NCc2ccc(O)c(O)c2O)c([N+](=O)[O-])c1 [4-[[(E)-(2,3-dihydroxy-4-oxo-1-cyclohexa-2,5-dienylidene)methyl]hydrazo]-3-nitrobenzenesulfonamide] | 0.109 µM
O=C(COc1ccccc1C(=O)NN=Cc1ccc(O)c(O)c1)NN=Cc1ccc(O)c(O)c1 [N''-[(Z)-(3-hydroxy-4-oxo-1-cyclohexa-2,5-dienylidene)methyl]-2-[2-[[(Z)-(3-hydroxy-4-oxo-1-cyclohexa-2,5-dienylidene)methyl]hydrazo]-2-oxoethoxy]benzohydrazide] | > 30 µM
CCN(CC)S(=O)(=O)c1cccc(C(=O)NN=Cc2ccc(O)c(O)c2O)c1 | > 30 µM
Cc1cccc(N2CCN(C(=O)COc3nsc4nc(C)cc(C)c34)CC2C)c1 (stereo unspecified) | 0.59 µM
Cc1[nH]n(-c2ccccc2)c(=S)c1/C=N/c1cccc([N+](=O)[O-])c1 [(4E)-5-methyl-4-[(3-nitroanilino)methylene]-2-phenyl-2-pyrazoline-3-thione] | > 30 µM
Cc1cccc(N2CCN(C(=O)Cn3sc4nc(C)cc(C)c4c3=O)CC2C)c1 (stereo unspecified) [2-[2-keto-2-[3-methyl-4-(m-tolyl)piperazino]ethyl]-4,6-dimethyl-isothiazolo[5,4-b]pyridin-3-one] | 0.1 µM
CCN(CC)S(=O)(=O)c1cccc(-c2n[nH]c(=S)n2N=Cc2ccc(C(=O)OC)cc2)c1 [4-[(E)-[3-[3-(diethylsulfamoyl)phenyl]-5-thioxo-1H-1,2,4-triazol-4-yl]iminomethyl]benzoic acid methyl ester] | > 30 µM

Results, then the compound that gave them:

EC50 | SMILES
0.016 µM | CC(=O)OCCCNc1cc(Sc2nc3ccccc3s2)c2nonc2c1[N+](=O)[O-] [MLS000521052]
1.24 µM | CCC(=O)NC(c1ccc(C)cc1)c1cc([N+](=O)[O-])c2cccnc2c1O (stereo unspecified) [MLS000553854]
0.082 µM | O=C1C(Cl)=C(N2CCCCC2)C(=O)C(Cl)=C1c1cnc(N2CCCCC2)s1 [MLS000550549]
0.794 µM | O=C(Cc1csc(N2CCOCC2)n1)NN=Cc1ccc(O)c(O)c1O [SMR000369439]
0.169 µM | COc1ccc(C2=CC(=O)C=CC2=O)cc1 [MLS001029846]
0.245 µM | CC1(C)OC(=O)C(=Cc2ccc(-c3ccc(S(N)(=O)=O)cc3)o2)C(=O)O1 [SMR000273939]
> 30 µM | Nc1c(C(=O)NCC2CCCO2)sc2nc3c(c(-c4ccco4)c12)CC/C3=C/c1ccco1 (stereo unspecified) [UNM-0000305796]
0.115 µM | Cc1cc(Cl)ccc1/N=c1/ssnc1Cl [MLS000539990]

Same assay, conditions: inactive by the depositor's call

EC50 | SMILES
4.69 µM | CCOc1ccccc1-c1c2cc(O)c(=O)cc-2oc2cc(O)c(O)cc12 [MLS000578271]

From BindingDB's records for doi:10.7270/Q2BG2MFK (Nmmlsc, 2010)
